PubChem BioAssay AID192 (DTP/NCI, 2004)
Where “and” joins values, the source holds several entries; their conditions need not be identical. Identical values can stand only once. Inconclusive results and toxic doses are left out.

System: BDF1 mice, B16 melanoma ip, median survival T/C
Assay: NCI In Vivo Anticancer Drug Screen. Data for tumor model B16 Melanoma (intraperitoneal) in B6D2F1 (BDF1) mice
Details: endpoint: median survival time, higher = longer survival
How it was run: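 Mice with transplantable tumors; drug vs vehicle groups; endpoint survival or tumor size; value = T/C.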

[1] = dose: 5.0 mg/kg/injection, schedule: Q01DX009 (ip), vehicle: saline with Tween-80
[2] = dose: 10.0 mg/kg/injection, schedule: Q01DX009 (ip), vehicle: saline with Tween-80
[3] = dose: 50.0 mg/kg/injection, schedule: Q01DX009 (ip), vehicle: saline
[4] = dose: 100.0 mg/kg/injection, schedule: Q01DX009 (ip), vehicle: saline
[5] = dose: 200.0 mg/kg/injection, schedule: Q01DX009 (ip), vehicle: saline
[6] = dose: 25.0 mg/kg/injection, schedule: Q01DX009 (ip), vehicle: saline with Tween-80
[7] = dose: 50.0 mg/kg/injection, schedule: Q01DX009 (ip), vehicle: saline with Tween-80
[8] = dose: 100.0 mg/kg/injection, schedule: Q01DX009 (ip), vehicle: saline with Tween-80
[9] = dose: 200.0 mg/kg/injection, schedule: Q01DX009 (ip), vehicle: saline with Tween-80
[10] = dose: 0.78 mg/kg/injection, schedule: Q01DX009 (ip), vehicle: saline
[11] = dose: 1.56 mg/kg/injection, schedule: Q01DX009 (ip), vehicle: saline
[12] = dose: 3.12 mg/kg/injection, schedule: Q01DX009 (ip), vehicle: saline
[13] = dose: 6.25 mg/kg/injection, schedule: Q01DX009 (ip), vehicle: saline
[14] = dose: 12.5 mg/kg/injection, schedule: Q01DX009 (ip), vehicle: saline
[15] = dose: 25.0 mg/kg/injection, schedule: Q01DX009 (ip), vehicle: saline
[16] = dose: 100.0 mg/kg/injection, schedule: Q01DX009 (ip), vehicle: Klucel (hydroxypropylcellulose) (HPC)
[17] = dose: 200.0 mg/kg/injection, schedule: Q01DX009 (ip), vehicle: Klucel (hydroxypropylcellulose) (HPC)

O=C(O)C1CC(c2ccccc2)=NN1c1ccccc1 (stereo unspecified)
T/C (dose: 12.5 mg/kg/injection, schedule: Q01DX009 (ip), vehicle: water): 104 % of control
T/C (dose: 25.0 mg/kg/injection, schedule: Q01DX009 (ip), vehicle: water): 99 % of control and 100 % of control
T/C (dose: 50.0 mg/kg/injection, schedule: Q01DX009 (ip), vehicle: water): 99 % of control
T/C (dose: 100.0 mg/kg/injection, schedule: Q01DX009 (ip), vehicle: water): 97 % of control and 110 % of control
T/C (dose: 200.0 mg/kg/injection, schedule: Q01DX009 (ip), vehicle: water): 104 % of control and 110 % of control

C=CCc1cccc(OC)c1OCCN(CC)CC
T/C [1]: 88 % of control
T/C [2]: 100 % of control
T/C (dose: 20.0 mg/kg/injection, schedule: Q01DX009 (ip), vehicle: saline with Tween-80): 100 % of control

COC(=O)/C(C)=C/C=C/C(OC)C(OC(N)=O)/C(C)=C/C(C)C(O)C(CC(C)CC1=C(OC)C(=O)C=C(N)C1=O)OC (stereo unspecified)
T/C (dose: 12.5 mg/kg/injection, schedule: Q01DX005 (ip), vehicle: other): 103 % of control
T/C (dose: 25.0 mg/kg/injection, schedule: Q01DX005 (ip), vehicle: other): 99 % of control
T/C (dose: 50.0 mg/kg/injection, schedule: Q01DX005 (ip), vehicle: other): 108 % of control
T/C (dose: 100.0 mg/kg/injection, schedule: Q01DX005 (ip), vehicle: other): 108 % of control
T/C (dose: 200.0 mg/kg/injection, schedule: Q01DX005 (ip), vehicle: other): 86 % of control

CN(C)CCC#N
T/C [3]: 113 % of control and 122 % of control
T/C [4]: 110 % of control and 113 % of control
T/C [5]: 105 % of control and 122 % of control

CCOC(=O)c1[nH]c(C#N)c(C(=O)OCC)c1C
T/C [6]: 95 % of control
T/C [7]: 95 % of control
T/C [8]: 88 % of control

COc1cc([N+](=O)[O-])ccc1NC(=O)Nc1ccc(Cl)cc1
T/C [7]: 93 % of control
T/C [8]: 91 % of control
T/C [9]: 101 % of control

O=NNc1ccc(Cl)cn1
T/C (dose: 1.5 mg/kg/injection, schedule: Q01DX009 (ip), vehicle: water): 104 % of control
T/C (dose: 3.0 mg/kg/injection, schedule: Q01DX009 (ip), vehicle: water): 118 % of control
T/C (dose: 24.0 mg/kg/injection, schedule: Q01DX009 (ip), vehicle: water): 161 % of control

CN1CCN(CCCN2c3ccccc3Sc3ccc(C(F)(F)F)cc32)CC1
T/C (dose: 0.58 mg/kg/injection, schedule: Q01DX009 (ip), vehicle: saline): 117 % of control
T/C [10]: 102 % of control
T/C (dose: 1.17 mg/kg/injection, schedule: Q01DX009 (ip), vehicle: saline): 112 % of control
T/C [11]: 102 % of control
T/C (dose: 2.34 mg/kg/injection, schedule: Q01DX009 (ip), vehicle: saline): 112 % of control
T/C [12]: 112 % of control and 110 % of control
T/C (dose: 4.68 mg/kg/injection, schedule: Q01DX009 (ip), vehicle: saline): 97 % of control
T/C [13]: 102 % of control and 95 % of control
T/C (dose: 9.37 mg/kg/injection, schedule: Q01DX009 (ip), vehicle: saline): 115 % of control
T/C [14]: 105 % of control and 102 % of control
T/C [15]: 102 % of control

COc1ccc2c3c1OC1CC(O)C=CC31CCN(C)C2 (stereo unspecified)
T/C (dose: 1.25 mg/kg/injection, schedule: Q01DX009 (ip), vehicle: saline with Tween-80): 106 % of control
T/C (dose: 2.5 mg/kg/injection, schedule: Q01DX009 (ip), vehicle: saline): 103 % of control
T/C [1]: 105 % of control and 113 % of control
T/C [2]: 95 % of control

CC1C2CC3C(OC(=O)C13)C2I (stereo unspecified)
T/C [8]: 107 % of control
T/C [9]: 89 % of control

Cn1c(N)c(N=Nc2ccccc2Cl)c(=O)n(C)c1=O
T/C [13]: 110 % of control
T/C [14]: 105 % of control
T/C [15]: 104 % of control
T/C [7]: 86 % of control
T/C [3]: 110 % of control

N#CC(Cc1ccccc1Cl)(Cc1ccccc1Cl)c1ccccc1
T/C [16]: 100 % of control
T/C [17]: 105 % of control
T/C (dose: 400.0 mg/kg/injection, schedule: Q01DX009 (ip), vehicle: Klucel (hydroxypropylcellulose) (HPC)): 105 % of control

S=C(Nc1ccccc1)Nc1ccccc1S
T/C [16]: 95 % of control and 107 % of control
T/C [17]: 98 % of control and 111 % of control

COc1ccc2c(c1)CCC(c1ccccc1)=C2c1ccc(OCCN2CCCC2)cc1
T/C (dose: 6.0 mg/kg/injection, schedule: Q01DX009 (ip), vehicle: saline sonified): 102 % of control
T/C (dose: 12.0 mg/kg/injection, schedule: Q01DX009 (ip), vehicle: saline sonified): 111 % of control
T/C (dose: 24.0 mg/kg/injection, schedule: Q01DX009 (ip), vehicle: saline sonified): 111 % of control

OCCN(CCO)CN(CO)c1nc(N(CO)CN(CCO)CCO)nc(N(CO)CN(CCO)CCO)n1
T/C (dose: 100.0 mg/kg/injection, schedule: Q04DX003 (ip), vehicle: saline): 120 % of control
T/C (dose: 200.0 mg/kg/injection, schedule: Q04DX003 (ip), vehicle: saline): 123 % of control
T/C (dose: 400.0 mg/kg/injection, schedule: Q04DX003 (ip), vehicle: saline): 112 % of control

CC(=O)C(N)CCC(=O)O (stereo unspecified)
T/C [3]: 105 % of control
T/C [4]: 113 % of control
T/C [5]: 97 % of control

O=C(Nc1ccc(C(=O)O)cc1)Oc1ccc(N(CCCl)CCCl)cc1
T/C (dose: 3.13 mg/kg/injection, schedule: Q04DX003 (ip), vehicle: saline with Tween-80): 109 % of control
T/C (dose: 6.25 mg/kg/injection, schedule: Q04DX003 (ip), vehicle: saline with Tween-80): 109 % of control
T/C (dose: 12.5 mg/kg/injection, schedule: Q01DX009 (ip), vehicle: saline with Tween-80): 165 % of control
T/C (dose: 12.5 mg/kg/injection, schedule: Q04DX003 (ip), vehicle: saline with Tween-80): 123 % of control
T/C (dose: 25.0 mg/kg/injection, schedule: Q01DX009 (ip), vehicle: Klucel (hydroxypropylcellulose) (HPC)): 154 % of control
T/C [6]: 110 % of control
T/C (dose: 25.0 mg/kg/injection, schedule: Q04DX003 (ip), vehicle: saline with Tween-80): 151 % of control
T/C (dose: 50.0 mg/kg/injection, schedule: Q04DX003 (ip), vehicle: saline with Tween-80): 164 % of control
T/C (dose: 100.0 mg/kg/injection, schedule: Q04DX003 (ip), vehicle: saline with Tween-80): 205 % of control

ClCCN=Cc1ccc(Cl)cc1
T/C [8]: 98 % of control
T/C [9]: 95 % of control
T/C (dose: 400.0 mg/kg/injection, schedule: Q01DX009 (ip), vehicle: saline with Tween-80): 93 % of control

CC(C)NC1C2CCC(CC2)C1(O)c1ccc(Cl)c(Cl)c1 (stereo unspecified)
T/C [10]: 108 % of control
T/C [11]: 107 % of control
T/C [12]: 107 % of control
T/C [13]: 104 % of control
T/C [14]: 102 % of control

CCC(=O)Nc1cccc(Cl)c1
T/C (dose: 75.0 mg/kg/injection, schedule: Q04DX003 (ip), vehicle: saline with Tween-80): 110 % of control
T/C (dose: 150.0 mg/kg/injection, schedule: Q04DX003 (ip), vehicle: saline with Tween-80): 97 % of control
T/C (dose: 300.0 mg/kg/injection, schedule: Q04DX003 (ip), vehicle: saline with Tween-80): 100 % of control

C[n+]1ccc(Nc2ccc(NC(=O)c3ccc(Nc4cc[n+](C)c5ccc([N+](=O)[O-])cc45)cc3)cc2)cc1
T/C (dose: 4.0 mg/kg/injection, schedule: Q01DX009 (ip), vehicle: saline): 107 % of control
T/C (dose: 8.0 mg/kg/injection, schedule: Q01DX009 (ip), vehicle: saline): 102 % of control
T/C (dose: 16.0 mg/kg/injection, schedule: Q01DX009 (ip), vehicle: saline): 107 % of control
T/C (dose: 32.0 mg/kg/injection, schedule: Q01DX009 (ip), vehicle: saline): 103 % of control

CCN(CC)P(=O)(N1CC1C)N1CC1C (stereo unspecified)
T/C (dose: 9.3 mg/kg/injection, schedule: Q01DX009 (ip), vehicle: saline): 123 % of control
T/C (dose: 18.7 mg/kg/injection, schedule: Q01DX009 (ip), vehicle: saline): 112 % of control
T/C (dose: 37.5 mg/kg/injection, schedule: Q01DX009 (ip), vehicle: saline): 99 % of control

c1ccc2c(c1)OCCOCCOc1ccccc1OCCOCCO2
T/C (dose: 12.5 mg/kg/injection, schedule: Q04DX003 (ip), vehicle: Klucel (hydroxypropylcellulose) (HPC)): 93 % of control
T/C (dose: 25.0 mg/kg/injection, schedule: Q04DX003 (ip), vehicle: Klucel (hydroxypropylcellulose) (HPC)): 88 % of control
T/C (dose: 50.0 mg/kg/injection, schedule: Q04DX003 (ip), vehicle: Klucel (hydroxypropylcellulose) (HPC)): 86 % of control
